Data from US20060148858A1, “1, 2-Azole derivatives with hypoglycemic and hypolipidemic activity” (priority 2002, published 2006).
pEC50: −log10 of the molar value.

Experiments:
PPARδ-RXRα heterodimer = target: T1, PPARδ-RXRα heterodimer (Homo sapiens, UniProt Q03181); test: PPARδ-RXRα heterodimer ligand activity, luciferase reporter in COS-1 transformant (Test Example 4); type: cell-based; settings: COS-1 transformant (hPPARδ, hRXRα, reporter), 36-48 hours, concentration for 50% of the maximum fold induction
T1 construct: expressed in transfected cells; host or cells: COS-1
T1 sequence (Q03181 1-441): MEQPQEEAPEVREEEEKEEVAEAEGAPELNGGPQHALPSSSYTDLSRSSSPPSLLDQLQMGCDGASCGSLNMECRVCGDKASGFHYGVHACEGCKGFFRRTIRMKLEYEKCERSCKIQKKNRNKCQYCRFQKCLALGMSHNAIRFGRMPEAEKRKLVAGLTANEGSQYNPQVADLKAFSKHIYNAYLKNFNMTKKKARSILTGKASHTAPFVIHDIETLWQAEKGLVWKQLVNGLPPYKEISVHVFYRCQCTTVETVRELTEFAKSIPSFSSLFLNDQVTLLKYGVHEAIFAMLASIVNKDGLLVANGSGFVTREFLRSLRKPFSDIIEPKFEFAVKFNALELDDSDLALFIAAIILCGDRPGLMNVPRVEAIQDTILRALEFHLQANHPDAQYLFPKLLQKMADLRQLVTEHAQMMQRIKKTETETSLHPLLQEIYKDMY
T1 sequence (P19793 1-462 partner): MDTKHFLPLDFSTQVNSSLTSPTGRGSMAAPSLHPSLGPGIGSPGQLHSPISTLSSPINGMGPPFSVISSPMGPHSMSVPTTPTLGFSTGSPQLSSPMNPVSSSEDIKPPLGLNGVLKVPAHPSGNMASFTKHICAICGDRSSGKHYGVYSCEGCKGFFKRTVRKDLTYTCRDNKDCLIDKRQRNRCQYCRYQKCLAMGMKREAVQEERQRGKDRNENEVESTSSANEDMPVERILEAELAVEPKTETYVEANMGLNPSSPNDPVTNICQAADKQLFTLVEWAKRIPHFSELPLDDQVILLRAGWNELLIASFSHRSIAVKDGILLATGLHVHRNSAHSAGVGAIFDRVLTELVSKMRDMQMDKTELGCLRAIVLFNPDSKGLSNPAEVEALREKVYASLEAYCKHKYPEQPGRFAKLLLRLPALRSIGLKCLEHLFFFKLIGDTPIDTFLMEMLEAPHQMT
Description: The transformant obtained in Reference Example 9a was suspended in DMEM medium (produced by Life Technologies, Inc., USA) containing 0.1% fatty acid-free bovine serum albumin (BSA) (produced by Wako Pure Chemical Industries, Ltd.), and inoculate to each well of a 96-well white plate (produced by Corning Costar Corporation, USA) by 80 μl at 1×10^4 cells/well. Then the test compound (20 μl) was added and cultured at 37° C. under 5% CO2 for 36-48 hours. After removing the medium from the 96-well white plate, 40 μl of PIKKAGENE LT 7.5 (produced by Wako Pure Chemical Industries, Ltd.) diluted twice with HBSS (HANKS' BALANCED SALT SOLUTION)(produced by BIO WHITTAKER Inc., USA), was added. After stirring, the luciferase activity was determined using 1420 ARVO Multilabel Counter (produced by PerkinElmer Inc., USA).
A fold induction was calculated based on the luciferase activity of each test compound by taking the luciferase activity in the non-treatment group as 1. The values of the test compound concentration and the fold induction were analyzed using PRISM (produced by GraphPad Software Inc. USA) to calculate the EC50 values, the effective concentration of a test compound for 50% of the maximum fold induction.
COS-1 cells were inoculated to a 150 cm^2 cell culture flask (produced by Corning Costar Corporation, USA) at the density of 5×10^6 cells/50 ml, and cultured at 37° C. under 5% CO2 conditions for 24 hours. Subsequently, a DNA was introduced into the cell under the condition shown below using Lipofectamine (produced by Invitrogen, USA).
First, Lipofectamine (125 μl), PLUS Reagent (100 μl, produced by Invitrogen, USA), plasmid pMCMVneo-hPPARδ (2.5 μg) obtained in Reference Example 3a, plasmid pMCMVneo-hRXRα (2.5 μg) obtained in Reference Example 4a and reporter plasmid pGL3-4ERPP-TK neo (5 μg) obtained in Reference Example 5a, and pRL-tk (5 μg, produced by Promega, USA) were mixed with opti-MEM (5 ml, produced by Invitrogen, USA) to give a transfection mixture.
Then, the above-mentioned transfection mixture and opti-MEM (20 ml) were added to COS-1 cells washed with opti-MEM, and the cells were cultured at 37° C. under 5% CO2 conditions for 3 hours. DMEM medium (25 ml, produced by Life Technologies, Inc., USA) containing 0.1% fatty acid-free bovine serum albumin (BSA) (produced by Wako Pure Chemical Industries, Ltd.) was added to the obtained COS-1 cells, and the cells were cultured at 37° C. under 5% CO2 conditions for 18-24 hours to give a transformant.

| SMILES | pEC50 (PPARδ-RXRα heterodimer) | melting point [°C] |
| --- | --- | --- |
| CCCc1nn(-c2ccc(C(F)(F)F)cn2)cc1CCCOc1ccc(CCC(=O)O)c(C)c1 [Example 65, 3-[2-methyl-4-(3-{3-propyl-1-[5-(trifluoromethyl)-2-pyridinyl]-1H-pyrazol-4-yl}propoxy)phenyl]propanoic acid] | 8.74 | 124 to 126 |
| CCOc1nn(-c2ccc(C(F)(F)F)cn2)cc1CCOc1ccc(CCC(=O)O)c(OC)c1 [Example 75, 3-[4-(2-{3-ethoxy-1-[5-(trifluoromethyl)-2-pyridinyl]-1H-pyrazol-4-yl}ethoxy)-2-methoxyphenyl]propanoic acid] | 8.42 | 147 to 148 |
| CCOc1nn(-c2ccc(C(F)(F)F)cn2)cc1CCOc1ccc(CCC(=O)O)c(C)c1 [Example 76, 3-[4-(2-{3-ethoxy-1-[5-(trifluoromethyl)-2-pyridinyl]-1H-pyrazol-4-yl}ethoxy)-2-methylphenyl]propanoic acid] | 8.72 | 117 to 119 |
| CCOc1nn(-c2ccc(C(F)(F)F)cn2)cc1CCCOc1ccc(CCC(=O)O)c(OC)c1 [Example 85, 3-[4-(3-{3-ethoxy-1-[5-(trifluoromethyl)-2-pyridyl]-1H-pyrazol-4-yl}propoxy)-2-methoxyphenyl]propionic acid] | 8.22 | 120 to 121 |
| CCCc1nn(-c2ccc(C(F)(F)F)cn2)cc1CCCOc1ccc(CCC(=O)O)c(OC)c1 [Example 86, 3-[2-methoxy-4-(3-{3-propyl-1-[5-(trifluoromethyl)-2-pyridyl]-1H-pyrazol-4-yl}propoxy)phenyl]propionic acid] | 8.82 | 114 to 115 |
| CCCc1nn(-c2ccc(C(F)(F)F)cn2)cc1CCCOc1cc(CC(=O)O)ccc1F [Example 91, [4-fluoro-3-(3-{3-propyl-1-[5-(trifluoromethyl)-2-pyridyl]-1H-pyrazol-4-yl}propoxy)phenyl]acetic acid] | 8.22 | 88 to 89 |
| CCCc1nn(-c2ccc(C(F)(F)F)cn2)cc1CCCOc1cc(CCC(=O)O)cc(OC)c1 [Example 92, 3-[3-methoxy-5-(3-{3-propyl-1-[5-(trifluoromethyl)-2-pyridyl]-1H-pyrazol-4-yl}propoxy)phenyl]propionic acid] | 8.72 | 98 to 99 |
| CCCc1nn(-c2ccc(C(F)(F)F)cn2)cc1CCCOc1ccc(CC(=O)O)c(C)c1 [Example 94, [2-methyl-4-(3-{3-propyl-1-[5-(trifluoromethyl)-2-pyridyl]-1H-pyrazol-4-yl}propoxy)phenyl]acetic acid] | 8.40 | 134 to 135 |
| CCCc1nn(-c2ccc(C(F)(F)F)cn2)cc1CCCOc1ccc(CCC(=O)O)cc1OC [Example 96, 3-[3-methoxy-4-(3-{3-propyl-1-[5-(trifluoromethyl)-2-pyridyl]-1H-pyrazol-4-yl}propoxy)phenyl]propionic acid] | 8.77 | 126 to 127 |
| CCOc1cc(OCCCc2cn(-c3ccc(C(F)(F)F)cn3)nc2-c2ccccc2)ccc1CCC(=O)O [Example 99, 3-[2-ethoxy-4-(3-{3-phenyl-1-[5-(trifluoromethyl)-2-pyridinyl]-1H-pyrazol-4-yl}propoxy)phenyl]propanoic acid] | 9.26 | 135 to 136 |
| CCOc1nn(-c2ccc(C(F)(F)F)cc2)cc1CCCOc1cc(CCC(=O)O)n(-c2ccccc2)n1 [Example 111, 3-[3-(3-{3-ethoxy-1-[4-(trifluoromethyl)phenyl]-1H-pyrazol-4-yl}propoxy)-1-phenyl-1H-pyrazol-5-yl]propanoic acid] | 8.21 | 126 to 127 |
| CCOc1nn(-c2ccc(C(F)(F)F)cc2)cc1CCCOc1cccc(CC(=O)O)c1 [Example 113, [3-(3-{3-ethoxy-1-[4-(trifluoromethyl)phenyl]-1H-pyrazol-4-yl}propoxy)phenyl]acetic acid] | 8.32 | 108 to 109 |
| CCCOc1cc(OCCCc2cn(-c3ccc(C(F)(F)F)cn3)nc2OCC)ccc1CCC(=O)O [Example 117, 3-[4-(3-{3-ethoxy-1-[5-(trifluoromethyl)-2-pyridinyl]-1H-pyrazol-4-yl}propoxy)-2-propoxyphenyl]propanoic acid] | 8.80 | 126 to 127 |
| CCCCOc1cc(OCCCc2cn(-c3ccc(C(F)(F)F)cn3)nc2OCC)ccc1CCC(=O)O [Example 118, 3-[2-butoxy-4-{3-(3-ethoxy-1-[5-(trifluoromethyl)-2-pyridinyl]-1H-pyrazol-4-yl}propoxy)phenyl]propanoic acid] | 8.14 | 123 to 124 |
| COc1cc(OCc2cn(-c3ccc(C(F)(F)F)cn3)nc2C)ccc1CCC(=O)O [Example 122, 3-[2-methoxy-4-({3-methyl-1-[5-(trifluoromethyl)-2-pyridyl]-1H-pyrazol-4-yl}methoxy)phenyl]propionic acid] | 8.31 | 158 to 159 |
| Cc1cc(OCc2cn(-c3ccc(C(F)(F)F)cn3)nc2C)ccc1CCC(=O)O [Example 123, 3-[2-methyl-4-({3-methyl-1-[5-(trifluoromethyl)-2-pyridyl]-1H-pyrazol-4-yl}methoxy)phenyl]propionic acid] | 8.54 | 144 to 145 |
| O=C(O)Cc1cccc(OCCCc2cn(-c3ccc(C(F)(F)F)cn3)nc2-c2ccccc2)c1 [Example 124, [3-(3-{3-phenyl-1-[5-(trifluoromethyl)-2-pyridyl]-1H-pyrazol-4-yl}propoxy)phenyl]acetic acid] | 8.62 | 132 to 133 |
| CCOc1cc(OCCCc2cn(-c3ccc(C(F)(F)F)cn3)nc2C)ccc1CCC(=O)O [Example 126, 3-[2-ethoxy-4-(3-{3-methyl-1-[5-(trifluoromethyl)-2-pyridyl]-1H-pyrazol-4-yl}propoxy)phenyl]propionic acid] | 8.66 | 129 to 130 |
| Cc1nn(-c2ccc(C(F)(F)F)cn2)cc1CCCOc1cccc(CC(=O)O)c1 [Example 127, [3-(3-{3-methyl-1-[5-(trifluoromethyl)-2-pyridyl]-1H-pyrazol-4-yl}propoxy)phenyl]acetic acid] | 8.41 | 96 to 97 |
| COc1cc(CCC(=O)O)ccc1OCCCc1cn(-c2ccc(C(F)(F)F)cn2)nc1C [Example 129, 3-[3-methoxy-4-(3-{3-methyl-1-[5-(trifluoromethyl)-2-pyridyl]-1H-pyrazol-4-yl}propoxy)phenyl]propionic acid] | 8.31 | 136 to 137 |
| CCOc1nn(-c2ccc(C(F)(F)F)cn2)cc1CCCOc1cc(CC(=O)O)ccc1OC [Example 131, [3-(3-{3-ethoxy-1-[5-(trifluoromethyl)-2-pyridyl]-1H-pyrazol-4-yl}propoxy)-4-methoxyphenyl]acetic acid] | 8.57 | 142 to 143 |
